Measured values taken from patent publication US9145392B2, “Imidazole amines as modulators of kinase activity” (Merck Patent GmbH, priority 2011, dated 2015).

Legend:
[1] = molecular target: P70S6K (T412E mutant) (Homo sapiens (Human), UniProt P23443, T412E); assay: P70S6K enzyme assay; format: biochemical; conditions: read-out: IC50 p70S6K
Method in brief: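 Phosphorylated product and substrate peptide separated by microfluidic capillary electrophoresis (Caliper LabChip 3000), product peaks resolving before substrate.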

[2] = molecular target: His-AKT (Full Length) (Homo sapiens (Human), UniProt P31749); assay: AKT enzyme assay; format: biochemical; conditions: read-out: IC50 AKT
Sequence of His-AKT (Full Length) (P31749 whole entry): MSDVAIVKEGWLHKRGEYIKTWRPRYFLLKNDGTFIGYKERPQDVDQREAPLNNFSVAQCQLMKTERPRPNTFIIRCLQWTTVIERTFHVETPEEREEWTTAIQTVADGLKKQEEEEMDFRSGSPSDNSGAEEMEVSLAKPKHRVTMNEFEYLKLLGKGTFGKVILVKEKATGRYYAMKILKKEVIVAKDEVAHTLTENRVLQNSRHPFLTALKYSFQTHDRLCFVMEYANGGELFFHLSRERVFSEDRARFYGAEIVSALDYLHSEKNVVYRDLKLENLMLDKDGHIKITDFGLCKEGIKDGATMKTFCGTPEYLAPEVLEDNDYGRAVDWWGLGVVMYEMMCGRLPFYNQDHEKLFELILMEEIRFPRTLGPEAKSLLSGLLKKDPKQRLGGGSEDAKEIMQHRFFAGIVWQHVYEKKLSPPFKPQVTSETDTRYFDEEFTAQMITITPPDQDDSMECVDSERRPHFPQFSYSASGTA

Sequence of P70S6K (T412E mutant) (P23443 whole entry T412E): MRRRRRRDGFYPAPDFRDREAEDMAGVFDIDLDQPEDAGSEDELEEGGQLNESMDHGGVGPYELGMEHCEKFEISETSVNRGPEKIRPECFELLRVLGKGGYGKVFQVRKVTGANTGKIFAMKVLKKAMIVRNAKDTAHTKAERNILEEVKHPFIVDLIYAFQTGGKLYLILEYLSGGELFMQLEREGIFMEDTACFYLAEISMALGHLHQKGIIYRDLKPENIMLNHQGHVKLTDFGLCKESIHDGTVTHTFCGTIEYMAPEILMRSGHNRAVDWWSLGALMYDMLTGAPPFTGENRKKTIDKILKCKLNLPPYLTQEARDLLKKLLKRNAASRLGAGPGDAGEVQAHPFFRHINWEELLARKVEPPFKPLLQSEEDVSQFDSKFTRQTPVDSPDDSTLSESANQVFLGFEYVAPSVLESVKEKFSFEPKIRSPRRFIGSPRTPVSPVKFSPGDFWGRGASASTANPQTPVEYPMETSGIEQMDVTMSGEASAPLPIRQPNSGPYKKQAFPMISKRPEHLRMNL

SMILES	IC50 [1]	IC50 [2]
NC(=O)c1c(N)ncnc1N1CCC(c2nc(-c3ccc(F)c(Cl)c3)cn2CCN2CCCC2)CC1 [Compound 330]	3.6 nM	14 nM
Nc1ncnc(N2CCC(c3nc(-c4ccc(F)c(C(F)(F)F)c4)cn3CCN3CCCCC3)CC2)c1Cl [Compound 216]	3.8 nM	9 nM
C=Cc1c(N)ncnc1N1CCC(c2nc(-c3ccc(F)c(C(F)(F)F)c3)cn2CCN(C)C)CC1 [Compound 73, 6-{4-[1-(2-Dimethylamino-ethyl)-4-(4-fluoro-3-trifluoromethyl-phenyl)-1H-imidazol-2-yl]-piperidin-1-yl}-5-vinyl-pyrimidin-4-ylamine]	2.7 nM	7.9 nM
Cc1cc(-c2cn(CCNC(C)(C)C)c(C3CCN(c4ncnc(N)c4-c4cn[nH]c4)CC3)n2)ccc1F [Compound 165, 6-(4-(1-(2-(tert-butylamino)ethyl)-4-(4-fluoro-3-methylphenyl)-1H-imidazol-2-yl)piperidin-1-yl)-5-(1H-pyrazol-4-yl)pyrimidin-4-amine]	2.8 nM	5.5 nM
NC(=O)c1c(N)ncnc1N1CCC(c2nc(-c3ccoc3)cn2CCN2CCC2)CC1 [Compound 133, 4-amino-6-(4-(1-(2-(azetidin-1-yl)ethyl)-4-(furan-3-yl)-1H-imidazol-2-yl)piperidin-1-yl)pyrimidine-5-carboxamide]	46 nM	3600 nM
CN(CCn1cc(-c2ccc(F)c(C(F)(F)F)c2)nc1C1CCN(c2ncnc(N)c2C(N)=O)CC1)Cc1ccccc1 [Compound 368, 4-Amino-6-{4[1-[2-(benzyl-methyl-amino)-ethyl]-4-(4-fluoro-3-trifluoromethyl-phenyl)-1H-imidazol-2-yl]-piperidin-1-yl}-pyrimidine-5-carboxylic acid amide]	21 nM	760 nM
CCc1cc(-c2cn(CCN3CCC3)c(C3CCN(c4ncnc(N)c4C(N)=O)CC3)n2)ccn1 [Compound 341]	11 nM	450 nM
Nc1ncnc(N2CCC(c3nc(-c4ccc(F)c(C(F)(F)F)c4)cn3CCN3CCCCC3)CC2)c1-c1cccc(F)c1 [Compound 64]	8.7 nM	85 nM
CN(C)CCn1cc(-c2ccc(F)c(C(F)(F)F)c2)nc1C1CCN(c2ncnc(N)c2C2=CCCC2)CC1 [Compound 90]	3.1 nM	31 nM
Nc1cc(N2CCC(c3nc(-c4ccc(F)c(C(F)(F)F)c4)cn3CCN3CCCC3)CC2)ncn1 [Compound 214]	50 nM	180 nM
N#Cc1c(N)ncnc1N1CCC(c2nc(-c3cccc(C(F)(F)F)c3)cn2CCN2CCCC2)CC1 [Compound 310]	2.3 nM	7.6 nM
Nc1ncnc(N2CCC(c3nc(-c4cccc(Cl)c4)cn3CCN3CCCC3)CC2)c1C1CCC1 [Compound 264]	4.1 nM	6.2 nM
Cc1cc(-c2cn(CC3CNC3)c(C3CCN(c4ncnc(N)c4OC(C)C)CC3)n2)ccc1F [Compound 187, 6-(4-(1-(azetidin-3-ylmethyl)-4-(4-fluoro-3-methylphenyl)-1H-imidazol-2-yl)piperidin-1-yl)-5-isopropoxypyrimidin-4-amine]	3.4 nM	6.4 nM
Nc1ncnc(N2CCC(c3nc(-c4ccnc(C(F)(F)F)c4)cn3CCN3CCC3)CC2)c1OCC(F)(F)F [Compound 118, 6-(4-(1-(2-(azetidin-1-yl)ethyl)-4-(2-(trifluoromethyl)pyridin-4-yl)-1H-imidazol-2-yl)piperidin-1-yl)-5-(2,2,2-trifluoroethoxy)pyrimidin-4-amine]	9.7 nM	21 nM
CCc1c(N)ncnc1N1CCC(c2nc(-c3ccc(F)c(F)c3)cn2CCN2CCC23COC3)CC1 [Compound 203, 6-(4-{4-(3,4-Difluoro-phenyl)-1-[2-(6-oxa-1-aza-spiro[3.3]hept-1-yl)-ethyl]-1H-imidazol-2-yl}-piperidin-1-yl)-5-ethyl-pyrimidin-4-ylamine]	30 nM	2500 nM
N#Cc1c(N)ncnc1N1CCC(c2nc(-c3cc[nH]c(=O)c3)cn2CCN2CCC2)CC1 [Compound 315]	99 nM	500 nM
Cc1ccc(-c2cn(CCN3CCC3)c(C3CCN(c4ncnc(N)c4C(N)=O)CC3)n2)cc1C(F)(F)F [Compound 340]	4 nM	420 nM
NC(=O)c1c(N)ncnc1N1CCC(c2nc(-c3cccc(F)c3)cn2CCN2CCCC2)CC1 [Compound 334]	26 nM	620 nM
Cc1cc(-c2cn(CCN3CCC3)c(C3CCN(c4ncnc(N)c4OC(C)C)CC3)n2)ccc1F [Compound 178, 6-(4-(1-(2-(azetidin-1-yl)ethyl)-4-(4-fluoro-3-methylphenyl)-1H-imidazol-2-yl)piperidin-1-yl)-5-isopropoxypyrimidin-4-amine]	3.9 nM	2.7 nM
C=C(C)c1c(N)ncnc1N1CCC(c2nc(-c3ccc(F)c(C(F)(F)F)c3)cn2CCN2CCCC2)CC1 [Compound 213]	7.9 nM	20 nM
CN(C)CCn1cc(-c2ccc(F)c(C(F)(F)F)c2)nc1C1CCN(c2ncnc(N)c2-c2ccncc2)CC1 [Compound 69, 6-{4-[1-(2-Dimethylamino-ethyl)-4-(4-fluoro-3-trifluoromethyl-phenyl)-1H-imidazol-2-yl]-piperidin-1-yl}-5-pyridin-4-yl-pyrimidin-4-ylamine]	3 nM	43 nM
Nc1ncnc(N2CCC(c3nc(-c4cccc(F)c4)cn3CCN3CCCC3)CC2)c1Cl [Compound 236]	0.5 nM	8.1 nM
N#Cc1c(N)ncnc1N1CCC(c2nc(-c3ccnc(F)c3)cn2CCN2CCC2)CC1 [Compound 206, 4-Amino-6-{4-[1-(2-azetidin-1-yl-ethyl)-4-(2-fluoro-pyridin-4-yl)-1H-imidazol-2-yl]-piperidin-1-yl}-pyrimidine-5-carbonitrile]	2.4 nM	13 nM
CCc1c(N)ncnc1N1CCC(c2nc(-c3ccc(F)c(C(F)(F)F)c3)cn2C2CCNCC2)CC1 [Compound 157, 5-ethyl-6-(4-(4-(4-fluoro-3-(trifluoromethyl)phenyl)-1-(piperidin-4-yl)-1H-imidazol-2-yl)piperidin-1-yl)pyrimidin-4-amine]	2 nM	190 nM
CN(C)CCN(C)CCn1cc(-c2ccc(F)c(C(F)(F)F)c2)nc1C1CCN(c2ncnc(N)c2C#N)CC1 [Compound 362, 4-Amino-6-{4-[1-{2-[(2-dimethylamino-ethyl)-methyl-amino]-ethyl}-4-(4-fluoro-3-trifluoromethyl-phenyl)-1H-imidazol-2-yl]-piperidin-1-yl}-pyrimidine-5-carbonitrile]	4.1 nM	76 nM
N#Cc1c(N)ncnc1N1CCC(c2nc(-c3ccc(F)c(C(F)(F)F)c3)cn2CCNC2CCCC2)CC1 [Compound 381, 4-Amino-6-{4-[1-(2-cyclopentylamino-ethyl)-4-(4-fluoro-3-trifluoromethyl-phenyl)-1H-imidazol-2-yl]-piperidin-1-yl}-pyrimidine-5-carbonitrile]	1.1 nM	0.8 nM
CN(C)CCN(C)CCn1cc(-c2ccc(F)c(C(F)(F)F)c2)nc1C1CCN(c2ncnc(N)c2C(N)=O)CC1 [Compound 365, 4-Amino-6-{4-[1-{2-[(2-dimethylamino-ethyl)-methyl-amino]-ethyl}-4-(4-fluoro-3-trifluoromethyl-phenyl)-1H-imidazol-2-yl]-piperidin-1-yl}-pyrimidine-5-carboxylic acid amide]	6.3 nM	730 nM
